Source: PubChem BioAssay AID248 (DTP/NCI, 2004)
Where “and” joins values, the source holds several entries; their conditions need not be identical. Equal entries are not always repeated. Toxic doses and inconclusive results are not listed. Rule as the data show it: active = T/C of 150% or more; inactive = T/C below 125%.

System: L1210 leukemia ip in BDF1 mice, survival T/C
Assay: NCI In Vivo Anticancer Drug Screen. Data for tumor model L1210 Leukemia (intraperitoneal) in B6D2F1 (BDF1) mice
Conditions: endpoint: mean survival time, higher = longer survival
Method in brief: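 Value reflects the ratio of survival in compound-treated mice to survival in vehicle-treated controls, with both groups carrying the same transplanted tumor.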

[1] = dose: 100.0 mg/kg/injection, schedule: Q04DX003 (ip), vehicle: other
[2] = dose: 100.0 mg/kg/injection, schedule: Q01DX001 (ip), vehicle: saline
[3] = dose: 100.0 mg/kg/injection, schedule: Q01DX009 (ip), vehicle: saline with Tween-80
[4] = dose: 200.0 mg/kg/injection, schedule: Q01DX001 (ip), vehicle: saline
[5] = dose: 200.0 mg/kg/injection, schedule: Q01DX009 (ip), vehicle: saline with Tween-80
[6] = dose: 400.0 mg/kg/injection, schedule: Q01DX001 (ip), vehicle: saline
[7] = dose: 100.0 mg/kg/injection, schedule: Q01DX009 (ip), vehicle: Klucel (hydroxypropylcellulose) (HPC)
[8] = dose: 200.0 mg/kg/injection, schedule: Q01DX009 (ip), vehicle: Klucel (hydroxypropylcellulose) (HPC)
[9] = dose: 100.0 mg/kg/injection, schedule: Q01DX009 (ip), vehicle: saline
[10] = dose: 100.0 mg/kg/injection, schedule: Q04DX003 (ip), vehicle: saline with Tween-80
[11] = dose: 200.0 mg/kg/injection, schedule: Q04DX003 (ip), vehicle: saline with Tween-80
[12] = dose: 400.0 mg/kg/injection, schedule: Q04DX003 (ip), vehicle: saline with Tween-80
[13] = dose: 100.0 mg/kg/injection, schedule: Q04DX002 (ip), vehicle: Klucel (hydroxypropylcellulose) (HPC)

Measured: T/C

ClC12C3CCCC1CCCC2CCC3 (stereo unspecified)
inactive: [1] 117 % of control | dose: 200.0 mg/kg/injection, schedule: Q04DX003 (ip), vehicle: other 104 % of control | dose: 400.0 mg/kg/injection, schedule: Q04DX003 (ip), vehicle: other 104 % of control

O=C(Nc1ccc(C(=O)O)cc1)Nc1cccc(Cl)c1
inactive: dose: 25.0 mg/kg/injection, schedule: Q04DX002 (ip), vehicle: saline 92 % of control | dose: 50.0 mg/kg/injection, schedule: Q04DX002 (ip), vehicle: saline 95 % of control | dose: 100.0 mg/kg/injection, schedule: Q04DX002 (ip), vehicle: saline 100 % of control and 89 % of control

C=CN1CCCC1=O (tested in a mixture with another compound)
inactive: [2] 101 % of control [middle of 4 runs] | [3] 92 % of control and 97 % of control | [4] 101 % of control [middle of 4 runs] | [5] 93 % of control and 100 % of control | [6] 101 % of control and 89 % of control and 98 % of control | dose: 400.0 mg/kg/injection, schedule: Q01DX009 (ip), vehicle: saline with Tween-80 93 % of control and 96 % of control

COC1OC2COC(c3ccccc3)OC2C(OC(=S)N(C)C)C1OC(=S)N(C)C (stereo unspecified)
inactive: dose: 100.0 mg/kg/injection, schedule: Q04DX003 (ip), vehicle: saline sonified 94 % of control | dose: 200.0 mg/kg/injection, schedule: Q04DX003 (ip), vehicle: saline sonified 92 % of control | dose: 400.0 mg/kg/injection, schedule: Q04DX003 (ip), vehicle: saline sonified 92 % of control

COc1ccc(OC)c(NC(=O)c2cccc(F)c2)c1
inactive: [7] 97 % of control | [8] 101 % of control | dose: 400.0 mg/kg/injection, schedule: Q01DX009 (ip), vehicle: Klucel (hydroxypropylcellulose) (HPC) 100 % of control

CC(C)OCCCO
inactive: [9] 87 % of control | dose: 200.0 mg/kg/injection, schedule: Q01DX009 (ip), vehicle: saline 92 % of control | dose: 400.0 mg/kg/injection, schedule: Q01DX009 (ip), vehicle: saline 97 % of control

O=C1C=CC(=O)N1CO (tested in a mixture with another compound)
inactive: [10] 97 % of control | [11] 92 % of control | [12] 91 % of control

O=C(O)C1CCCN(C(=O)OCc2ccccc2)C1 (stereo unspecified)
inactive: dose: 50.0 mg/kg/injection, schedule: Q01DX009 (ip), vehicle: Klucel (hydroxypropylcellulose) (HPC) 97 % of control | [7] 100 % of control | dose: 100.0 mg/kg/injection, schedule: Q04DX003 (ip), vehicle: Klucel (hydroxypropylcellulose) (HPC) 90 % of control | [8] 97 % of control | dose: 200.0 mg/kg/injection, schedule: Q04DX003 (ip), vehicle: Klucel (hydroxypropylcellulose) (HPC) 90 % of control | dose: 400.0 mg/kg/injection, schedule: Q04DX003 (ip), vehicle: Klucel (hydroxypropylcellulose) (HPC) 97 % of control

O=C1C2C3C=CC(CC3)C2S(=O)(=O)C2C3C=CC(CC3)C12 (stereo unspecified)
inactive: dose: 25.0 mg/kg/injection, schedule: Q04DX002 (ip), vehicle: gum acacia 96 % of control | dose: 50.0 mg/kg/injection, schedule: Q04DX002 (ip), vehicle: gum acacia 104 % of control | dose: 100.0 mg/kg/injection, schedule: Q04DX002 (ip), vehicle: gum acacia 100 % of control

CCCCC(=O)N/N=C/C=C/c1ccccc1[N+](=O)[O-]
inactive: [2] 97 % of control | [4] 105 % of control | [6] 105 % of control

c1ccc(C[N+](Cc2ccccc2)=C2CCCCC2)cc1
inactive: dose: 50.0 mg/kg/injection, schedule: Q01DX009 (ip), vehicle: saline 92 % of control | [9] 100 % of control | dose: 100.0 mg/kg/injection, schedule: Q04DX003 (ip), vehicle: saline 98 % of control | dose: 200.0 mg/kg/injection, schedule: Q04DX003 (ip), vehicle: saline 103 % of control

CP1(=S)CCC(O)(c2ccccc2)CC1 (stereo unspecified)
inactive: dose: 400.0 mg/kg/injection, schedule: Q04DX002 (ip), vehicle: saline with Tween-80 88 % of control

CC1CN1P(=O)(N1CC=CCC1)N1CC1C (stereo unspecified)
inactive: dose: 50.0 mg/kg/injection, schedule: Q01DX001 (ip), vehicle: saline 109 % of control | [2] 120 % of control | [4] 101 % of control | [6] 91 % of control

CCCCCCCCC(C(=O)c1ccccc1)C(O)(C(F)(F)F)C(F)(F)F (stereo unspecified)
inactive: [3] 100 % of control | [5] 106 % of control

Cc1c(Cl)c(Cl)cc([N+](=O)[O-])c1Cl
inactive: dose: 66.0 mg/kg/injection, schedule: Q01DX009 (sc), vehicle: olive oil, sesame oil, peanut oil 100 % of control | dose: 100.0 mg/kg/injection, schedule: Q01DX009 (sc), vehicle: olive oil, sesame oil, peanut oil 98 % of control | dose: 100.0 mg/kg/injection, schedule: Q04DX003 (sc), vehicle: olive oil, sesame oil, peanut oil 105 % of control | dose: 150.0 mg/kg/injection, schedule: Q01DX009 (sc), vehicle: olive oil, sesame oil, peanut oil 102 % of control | dose: 200.0 mg/kg/injection, schedule: Q01DX009 (sc), vehicle: olive oil, sesame oil, peanut oil 94 % of control | dose: 200.0 mg/kg/injection, schedule: Q04DX003 (sc), vehicle: olive oil, sesame oil, peanut oil 106 % of control | dose: 400.0 mg/kg/injection, schedule: Q01DX009 (sc), vehicle: olive oil, sesame oil, peanut oil 105 % of control | dose: 400.0 mg/kg/injection, schedule: Q04DX003 (sc), vehicle: olive oil, sesame oil, peanut oil 97 % of control

CCCS(=O)(=O)C(S(C)(=O)=O)S(=O)(=O)CC (stereo unspecified)
inactive: dose: 100.0 mg/kg/injection, schedule: Q01DX001 (ip), vehicle: Klucel (hydroxypropylcellulose) (HPC) 94 % of control | dose: 200.0 mg/kg/injection, schedule: Q01DX001 (ip), vehicle: Klucel (hydroxypropylcellulose) (HPC) 98 % of control | dose: 400.0 mg/kg/injection, schedule: Q01DX001 (ip), vehicle: Klucel (hydroxypropylcellulose) (HPC) 91 % of control

Cc1ccc(NC(=S)NC(=O)COc2ccccc2)cc1C
inactive: dose: 50.0 mg/kg/injection, schedule: Q01DX001 (ip), vehicle: other 92 % of control | dose: 50.0 mg/kg/injection, schedule: Q01DX009 (ip), vehicle: other 96 % of control and 108 % of control | dose: 50.0 mg/kg/injection, schedule: Q04DX002 (ip), vehicle: other 101 % of control and 116 % of control | dose: 50.0 mg/kg/injection, schedule: Q04DX003 (ip), vehicle: other 95 % of control | dose: 100.0 mg/kg/injection, schedule: Q01DX001 (ip), vehicle: other 97 % of control | dose: 100.0 mg/kg/injection, schedule: Q01DX009 (ip), vehicle: other 100 % of control and 86 % of control | [1] 92 % of control | dose: 200.0 mg/kg/injection, schedule: Q01DX001 (ip), vehicle: other 101 % of control | dose: 200.0 mg/kg/injection, schedule: Q01DX009 (ip), vehicle: other 96 % of control and 90 % of control

O=c1[nH]c(-c2ccccc2)c(Br)c(=O)[nH]1
inactive: [10] 97 % of control | [11] 107 % of control | [12] 100 % of control

CC(=O)O[C@H]1CC[C@@]2(C)[C@@H](CC[C@@H]3[C@@H]2CC[C@]2(C)[C@@H](C(C)=O)CC[C@@H]32)C1
inactive: [13] 96 % of control | dose: 200.0 mg/kg/injection, schedule: Q04DX002 (ip), vehicle: Klucel (hydroxypropylcellulose) (HPC) 96 % of control | dose: 400.0 mg/kg/injection, schedule: Q04DX002 (ip), vehicle: Klucel (hydroxypropylcellulose) (HPC) 96 % of control

NC1(c2ccccc2)CC1
inactive: dose: 25.0 mg/kg/injection, schedule: Q04DX002 (ip), vehicle: Klucel (hydroxypropylcellulose) (HPC) 90 % of control | dose: 50.0 mg/kg/injection, schedule: Q04DX002 (ip), vehicle: Klucel (hydroxypropylcellulose) (HPC) 93 % of control | [13] 95 % of control and 98 % of control
